Reference: ChEMBL document CHEMBL1201862, “PubChem BioAssay data set” (2004)
Active and inactive are the calls of the source.

Columns and labels:
[1] = system: Streptococcus sp. 'group A'; assay: growth inhibition of control SK(-) GAS strain, dose response, counter-screen for streptokinase expression inhibitor project, luminescence, kanamycin, BacTiterGlo, confirmation (AID 1900); format: functional, organism-based
BJ = assay: cytotoxicity toward Ras-transformed BJeLR fibroblasts, dose response, cell-based, alamar blue fluorescence, cherrypicked samples (AID 2631); format: functional; conditions: Homo sapiens;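 further: confirmatory dose-response assay in RAS-dependent BJ fibroblasts engineered with TERT, LT and ST, with cytotoxicity read by fluorescence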
INS1 = assay: beta cell apoptosis inhibitors, cytokine rescue, dose response, luminescence, retest (AID 449756); format: functional, cell-based; conditions: Rattus norvegicus;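 further: cell death triggered by IL-1 beta plus TNF-alpha plus IFN-gamma mixture; protective hits raise ATP signal compared with cytokine alone wells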
[2] = molecular target: T1, Histone-lysine N-methyltransferase NSD2 (Homo sapiens, UniProt O96028); format: biochemical
T1 sequence (O96028 whole entry): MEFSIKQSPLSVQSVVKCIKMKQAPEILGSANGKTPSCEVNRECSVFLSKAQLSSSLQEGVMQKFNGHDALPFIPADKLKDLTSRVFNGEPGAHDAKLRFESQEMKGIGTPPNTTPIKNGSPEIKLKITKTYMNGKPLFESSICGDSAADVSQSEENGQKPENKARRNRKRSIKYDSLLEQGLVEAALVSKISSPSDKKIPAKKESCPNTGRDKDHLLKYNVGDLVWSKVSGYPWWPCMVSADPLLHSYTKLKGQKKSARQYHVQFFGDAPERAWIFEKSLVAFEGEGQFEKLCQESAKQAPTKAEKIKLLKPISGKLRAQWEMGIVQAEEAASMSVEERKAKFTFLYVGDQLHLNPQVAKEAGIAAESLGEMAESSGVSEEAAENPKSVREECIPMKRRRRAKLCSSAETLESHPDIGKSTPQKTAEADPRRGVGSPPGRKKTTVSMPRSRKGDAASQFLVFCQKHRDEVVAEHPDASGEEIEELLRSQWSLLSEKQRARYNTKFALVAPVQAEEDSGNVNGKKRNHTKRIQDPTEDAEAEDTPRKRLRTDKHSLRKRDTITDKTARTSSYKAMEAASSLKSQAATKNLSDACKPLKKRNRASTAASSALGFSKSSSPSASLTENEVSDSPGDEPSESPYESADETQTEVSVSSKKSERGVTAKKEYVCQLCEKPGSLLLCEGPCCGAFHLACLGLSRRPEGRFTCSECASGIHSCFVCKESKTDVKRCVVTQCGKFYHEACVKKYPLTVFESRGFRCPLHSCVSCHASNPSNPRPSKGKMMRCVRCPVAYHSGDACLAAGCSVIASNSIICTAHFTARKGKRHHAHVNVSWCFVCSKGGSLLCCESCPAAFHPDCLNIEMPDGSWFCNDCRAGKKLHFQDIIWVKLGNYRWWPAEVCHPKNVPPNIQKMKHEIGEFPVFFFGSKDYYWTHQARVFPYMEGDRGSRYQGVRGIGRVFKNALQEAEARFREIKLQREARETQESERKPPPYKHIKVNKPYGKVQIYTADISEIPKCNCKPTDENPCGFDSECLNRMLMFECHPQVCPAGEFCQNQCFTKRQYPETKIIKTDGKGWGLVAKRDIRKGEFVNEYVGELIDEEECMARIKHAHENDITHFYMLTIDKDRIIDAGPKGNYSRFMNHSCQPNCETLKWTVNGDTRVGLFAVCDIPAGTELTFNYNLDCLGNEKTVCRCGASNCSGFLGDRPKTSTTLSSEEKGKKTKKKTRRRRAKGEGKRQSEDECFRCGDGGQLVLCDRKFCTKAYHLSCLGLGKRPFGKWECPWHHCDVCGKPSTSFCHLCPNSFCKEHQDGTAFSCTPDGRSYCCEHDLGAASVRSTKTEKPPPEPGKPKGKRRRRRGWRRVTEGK

[3] = molecular target: Protein kinase C zeta type (Homo sapiens, UniProt Q05513); format: functional;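 further: measured as one member of a broad kinase profiling panel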
[4] = molecular target: Protein kinase C delta type (Homo sapiens, UniProt Q05655); format: functional
[5] = molecular target: Death-associated protein kinase 3 (Homo sapiens, UniProt O43293); format: functional;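 further: measured as one member of a kinome-wide profiling panel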
[6] = molecular target: Serine/threonine-protein kinase Chk2 (Homo sapiens, UniProt O96017); format: functional;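 further: CHEK2 entry within a kinome-wide screening panel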
Activin receptor type-1 = Activin receptor type-1 (Homo sapiens, UniProt Q04771); assay: Navigating the Kinome. Panel member name: ACVR1; format: functional
SRSF protein kinase 1 = SRSF protein kinase 1 (Homo sapiens, UniProt Q96SB4); format: functional;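 further: measured as one member of a kinome-wide kinase profiling panel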
[7] = molecular target: Serine/threonine-protein kinase pim-1 (Homo sapiens, UniProt P11309); format: functional
[8] = molecular target: Cell division cycle 7-related protein kinase (Homo sapiens, UniProt O00311); format: functional;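 further: value obtained from a kinome-wide kinase panel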
[9] = molecular target: Casein kinase II subunit alpha (Homo sapiens, UniProt P68400); format: functional
[10] = molecular target: Casein kinase I isoform alpha (Homo sapiens, UniProt P48729); format: functional
[11] = molecular target: Ribosomal protein S6 kinase alpha-5 (Homo sapiens, UniProt O75582); format: functional
LIM domain kinase 1 = LIM domain kinase 1 (Homo sapiens, UniProt P53667); assay: Navigating the Kinome. Panel member name: LIMK1; format: functional
[12] = molecular target: Homeodomain-interacting protein kinase 2 (Homo sapiens, UniProt Q9H2X6); format: functional;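 further: measured within a kinome-wide kinase profiling panel, HIPK2 being one panel member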
[13] = molecular target: MAP kinase-activated protein kinase 3 (Homo sapiens, UniProt Q16644); format: functional;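 further: value comes from a kinome-wide profiling panel in which MAPKAPK3 is one of the panel members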
[14] = molecular target: Calcium/calmodulin-dependent protein kinase type II subunit beta (Homo sapiens, UniProt Q13554); format: functional
[15] = molecular target: Insulin-like growth factor 1 receptor (Homo sapiens, UniProt P08069); assay: Navigating the Kinome. Panel member name: IGF1R; format: functional
[16] = molecular target: Serine/threonine-protein kinase Nek4 (Homo sapiens, UniProt P51957); format: functional
[17] = molecular target: Dual specificity tyrosine-phosphorylation-regulated kinase 4 (Homo sapiens, UniProt Q9NR20); format: functional
Focal adhesion kinase 1 = Focal adhesion kinase 1 (Homo sapiens, UniProt Q05397); format: functional;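 further: measured as one member of a kinome panel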
Aurora kinase B = Aurora kinase B (Homo sapiens, UniProt Q96GD4); format: functional
[18] = molecular target: Mitogen-activated protein kinase 12 (Homo sapiens, UniProt P53778); format: functional;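 further: measured as one member of a kinome-wide kinase profiling panel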
[19] = molecular target: Mitogen-activated protein kinase kinase kinase kinase 4 (Homo sapiens, UniProt O95819); format: functional
[20] = molecular target: Tyrosine-protein kinase FRK (Homo sapiens, UniProt P42685); format: functional;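 further: FRK tested as one member of a kinome panel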
[21] = molecular target: Serine/threonine-protein kinase 3 (Homo sapiens, UniProt Q13188); format: functional;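 further: measured as one member of a kinome-wide kinase panel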
Sequence of Serine/threonine-protein kinase 3 (Q13188 whole entry): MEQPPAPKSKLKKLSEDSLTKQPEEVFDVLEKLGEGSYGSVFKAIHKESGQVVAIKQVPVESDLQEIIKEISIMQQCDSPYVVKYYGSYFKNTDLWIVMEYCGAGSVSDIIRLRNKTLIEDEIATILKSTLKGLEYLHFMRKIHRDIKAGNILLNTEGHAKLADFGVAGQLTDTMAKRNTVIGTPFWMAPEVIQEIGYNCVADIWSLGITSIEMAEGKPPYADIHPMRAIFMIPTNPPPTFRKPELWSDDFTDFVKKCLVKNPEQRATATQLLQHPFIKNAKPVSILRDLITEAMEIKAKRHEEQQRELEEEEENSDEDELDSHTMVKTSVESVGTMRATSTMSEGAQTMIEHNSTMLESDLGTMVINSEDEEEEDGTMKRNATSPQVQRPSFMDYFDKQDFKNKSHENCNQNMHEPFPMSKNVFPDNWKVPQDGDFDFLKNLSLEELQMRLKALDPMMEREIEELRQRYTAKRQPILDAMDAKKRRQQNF

Sequence of Casein kinase I isoform alpha (P48729 whole entry, canonical isoform): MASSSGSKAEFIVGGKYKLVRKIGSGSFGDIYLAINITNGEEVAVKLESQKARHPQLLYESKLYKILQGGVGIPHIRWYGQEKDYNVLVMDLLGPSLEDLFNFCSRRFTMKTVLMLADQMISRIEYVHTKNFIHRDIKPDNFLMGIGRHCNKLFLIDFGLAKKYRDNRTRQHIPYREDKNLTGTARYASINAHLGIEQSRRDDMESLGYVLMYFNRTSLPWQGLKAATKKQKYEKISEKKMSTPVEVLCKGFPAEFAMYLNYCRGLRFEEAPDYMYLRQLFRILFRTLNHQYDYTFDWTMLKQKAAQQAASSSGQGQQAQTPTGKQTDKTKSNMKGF
Sequence of LIM domain kinase 1 (P53667 whole entry, the tested form may be a part): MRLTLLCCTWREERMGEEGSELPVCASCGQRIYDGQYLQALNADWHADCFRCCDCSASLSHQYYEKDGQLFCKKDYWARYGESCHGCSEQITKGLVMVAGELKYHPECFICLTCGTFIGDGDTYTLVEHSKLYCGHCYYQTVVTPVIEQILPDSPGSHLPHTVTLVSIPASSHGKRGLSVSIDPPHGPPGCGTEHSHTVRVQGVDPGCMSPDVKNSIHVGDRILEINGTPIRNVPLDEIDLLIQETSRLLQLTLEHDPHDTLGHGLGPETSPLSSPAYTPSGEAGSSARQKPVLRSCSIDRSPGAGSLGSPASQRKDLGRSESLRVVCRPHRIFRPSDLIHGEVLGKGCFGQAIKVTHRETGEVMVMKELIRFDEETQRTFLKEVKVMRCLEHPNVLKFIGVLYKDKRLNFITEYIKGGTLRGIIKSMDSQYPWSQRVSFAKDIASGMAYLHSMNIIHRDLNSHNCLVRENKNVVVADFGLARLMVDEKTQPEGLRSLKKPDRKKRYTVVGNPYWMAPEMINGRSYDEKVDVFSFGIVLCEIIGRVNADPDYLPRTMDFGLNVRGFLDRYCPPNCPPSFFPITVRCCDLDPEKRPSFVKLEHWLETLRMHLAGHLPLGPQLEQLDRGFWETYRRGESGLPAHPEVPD
Sequence of Tyrosine-protein kinase FRK (P42685 whole entry): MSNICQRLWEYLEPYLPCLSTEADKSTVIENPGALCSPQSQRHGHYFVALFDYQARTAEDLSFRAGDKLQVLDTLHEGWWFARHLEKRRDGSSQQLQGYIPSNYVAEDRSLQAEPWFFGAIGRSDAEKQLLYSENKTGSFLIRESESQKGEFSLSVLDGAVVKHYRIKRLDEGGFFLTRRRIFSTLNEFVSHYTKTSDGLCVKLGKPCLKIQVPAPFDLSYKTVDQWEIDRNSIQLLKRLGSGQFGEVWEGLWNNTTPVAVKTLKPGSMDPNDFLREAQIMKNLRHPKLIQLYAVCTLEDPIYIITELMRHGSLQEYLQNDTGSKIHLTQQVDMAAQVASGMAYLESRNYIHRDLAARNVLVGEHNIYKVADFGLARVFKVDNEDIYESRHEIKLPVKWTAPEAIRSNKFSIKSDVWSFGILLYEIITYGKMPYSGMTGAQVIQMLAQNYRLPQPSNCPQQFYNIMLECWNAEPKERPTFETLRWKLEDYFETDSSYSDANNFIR
Sequence of Mitogen-activated protein kinase kinase kinase kinase 4 (O95819 whole entry): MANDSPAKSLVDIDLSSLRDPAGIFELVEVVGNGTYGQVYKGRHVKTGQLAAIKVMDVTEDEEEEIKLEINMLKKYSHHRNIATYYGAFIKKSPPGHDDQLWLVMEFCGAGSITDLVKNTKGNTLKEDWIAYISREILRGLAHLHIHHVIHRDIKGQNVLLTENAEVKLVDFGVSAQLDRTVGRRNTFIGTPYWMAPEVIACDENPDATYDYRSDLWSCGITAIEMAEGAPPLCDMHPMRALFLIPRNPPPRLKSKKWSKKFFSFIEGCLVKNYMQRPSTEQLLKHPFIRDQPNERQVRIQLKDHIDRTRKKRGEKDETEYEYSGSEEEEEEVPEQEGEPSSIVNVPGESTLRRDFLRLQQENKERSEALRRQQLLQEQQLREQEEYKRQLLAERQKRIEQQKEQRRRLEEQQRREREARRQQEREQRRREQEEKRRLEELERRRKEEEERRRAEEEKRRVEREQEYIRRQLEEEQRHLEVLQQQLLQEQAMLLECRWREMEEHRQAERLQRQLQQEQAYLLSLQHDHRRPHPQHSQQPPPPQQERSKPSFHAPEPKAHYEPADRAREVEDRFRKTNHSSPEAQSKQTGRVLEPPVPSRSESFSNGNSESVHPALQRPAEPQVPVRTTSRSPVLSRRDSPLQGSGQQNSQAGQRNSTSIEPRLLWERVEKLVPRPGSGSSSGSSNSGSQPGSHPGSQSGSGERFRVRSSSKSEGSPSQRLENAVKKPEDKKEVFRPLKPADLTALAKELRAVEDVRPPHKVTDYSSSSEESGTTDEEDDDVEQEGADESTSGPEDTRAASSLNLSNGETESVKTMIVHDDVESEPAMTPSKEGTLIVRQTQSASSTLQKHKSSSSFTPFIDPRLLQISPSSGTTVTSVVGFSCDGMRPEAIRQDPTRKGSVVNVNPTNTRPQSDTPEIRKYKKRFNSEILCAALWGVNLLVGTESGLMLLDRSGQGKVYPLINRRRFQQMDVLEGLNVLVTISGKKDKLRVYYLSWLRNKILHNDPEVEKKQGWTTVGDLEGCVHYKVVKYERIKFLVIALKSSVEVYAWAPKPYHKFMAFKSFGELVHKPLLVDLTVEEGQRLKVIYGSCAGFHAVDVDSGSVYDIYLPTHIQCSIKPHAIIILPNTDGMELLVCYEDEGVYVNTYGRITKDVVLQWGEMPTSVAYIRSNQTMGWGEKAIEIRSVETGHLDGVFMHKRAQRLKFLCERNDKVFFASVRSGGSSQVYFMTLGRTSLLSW
Sequence of Serine/threonine-protein kinase Chk2 (O96017 whole entry): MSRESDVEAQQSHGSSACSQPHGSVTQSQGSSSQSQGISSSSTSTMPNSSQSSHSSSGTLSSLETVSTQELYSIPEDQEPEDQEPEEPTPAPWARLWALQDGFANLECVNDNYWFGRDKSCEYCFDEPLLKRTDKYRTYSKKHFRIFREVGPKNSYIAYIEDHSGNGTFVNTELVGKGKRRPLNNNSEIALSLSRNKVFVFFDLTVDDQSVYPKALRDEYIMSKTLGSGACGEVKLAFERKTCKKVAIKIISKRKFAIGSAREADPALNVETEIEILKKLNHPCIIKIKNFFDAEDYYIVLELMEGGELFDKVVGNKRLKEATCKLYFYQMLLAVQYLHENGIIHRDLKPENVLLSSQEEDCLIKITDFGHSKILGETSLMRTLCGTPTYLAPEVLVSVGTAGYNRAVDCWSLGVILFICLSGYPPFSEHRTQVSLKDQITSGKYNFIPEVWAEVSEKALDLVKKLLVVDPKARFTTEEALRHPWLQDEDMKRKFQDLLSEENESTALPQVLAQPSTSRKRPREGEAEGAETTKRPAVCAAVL
Sequence of Death-associated protein kinase 3 (O43293 whole entry): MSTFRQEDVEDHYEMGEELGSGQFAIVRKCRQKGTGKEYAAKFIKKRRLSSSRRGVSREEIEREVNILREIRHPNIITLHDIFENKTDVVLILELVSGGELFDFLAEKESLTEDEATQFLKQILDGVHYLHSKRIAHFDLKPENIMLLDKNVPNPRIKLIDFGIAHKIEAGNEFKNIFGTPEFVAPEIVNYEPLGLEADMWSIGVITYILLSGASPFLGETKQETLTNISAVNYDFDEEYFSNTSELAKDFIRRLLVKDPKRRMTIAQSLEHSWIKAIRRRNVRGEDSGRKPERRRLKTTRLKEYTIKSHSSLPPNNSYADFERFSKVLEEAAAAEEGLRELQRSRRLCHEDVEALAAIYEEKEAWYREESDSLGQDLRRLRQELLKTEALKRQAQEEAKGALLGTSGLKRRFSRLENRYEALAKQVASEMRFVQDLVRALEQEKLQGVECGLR
Sequence of Ribosomal protein S6 kinase alpha-5 (O75582 whole entry, the tested form may be a part): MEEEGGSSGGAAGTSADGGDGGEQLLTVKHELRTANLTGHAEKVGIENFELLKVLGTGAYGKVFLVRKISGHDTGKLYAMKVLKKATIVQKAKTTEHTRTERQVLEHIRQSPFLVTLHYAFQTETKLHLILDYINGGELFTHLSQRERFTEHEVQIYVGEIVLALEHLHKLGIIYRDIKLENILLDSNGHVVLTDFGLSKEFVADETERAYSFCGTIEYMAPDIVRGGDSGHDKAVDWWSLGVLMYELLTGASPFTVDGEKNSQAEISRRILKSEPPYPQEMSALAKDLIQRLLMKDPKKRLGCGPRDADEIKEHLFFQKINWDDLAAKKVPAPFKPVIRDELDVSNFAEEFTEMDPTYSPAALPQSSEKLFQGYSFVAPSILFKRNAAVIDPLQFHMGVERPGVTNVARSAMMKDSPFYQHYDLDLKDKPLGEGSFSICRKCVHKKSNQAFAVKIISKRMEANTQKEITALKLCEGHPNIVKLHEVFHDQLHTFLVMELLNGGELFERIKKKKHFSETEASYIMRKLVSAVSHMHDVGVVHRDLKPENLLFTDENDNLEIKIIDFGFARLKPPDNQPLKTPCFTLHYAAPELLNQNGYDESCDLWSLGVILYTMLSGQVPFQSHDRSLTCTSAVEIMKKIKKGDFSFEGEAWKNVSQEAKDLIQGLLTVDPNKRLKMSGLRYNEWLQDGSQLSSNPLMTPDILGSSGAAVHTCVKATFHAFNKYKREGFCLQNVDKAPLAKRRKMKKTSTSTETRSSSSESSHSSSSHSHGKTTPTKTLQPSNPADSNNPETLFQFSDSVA

COC(=O)C1CN(C#N)N(c2ccc(Cl)cc2)C12c1ccccc1-c1ccccc12 (stereo not drawn)
EC50 [1]: 4.31 µM (active) | EC50 (BJ): 0.563 µM (inconclusive) | AC50 (INS1): 2.5 µM (active)

Cc1ccc2[nH]c(/C(C#N)=C/c3ccc(O)c(O)c3)nc2c1
AC50 [2]: 4.37 µM (active)

Nc1noc2cccc(-c3cccc(O)c3)c12
Ki [3]: > 7.94 µM (inactive) | Ki [4]: > 7.94 µM (inactive) | Ki [5]: > 25.1 µM (inactive) | Ki [6]: > 1.58 µM (inactive) | Ki (Activin receptor type-1): 0.631 µM (active) | Ki (SRSF protein kinase 1): 7.94 µM (active) | Ki [7]: 12.6 µM (active) | Ki [8]: > 1.26 µM (inactive) | Ki [9]: > 6.31 µM (inactive) | Ki [10]: > 5.01 µM (inactive) | Ki [11]: 0.631 µM (active) | Ki (LIM domain kinase 1): 2.51 µM (active) | Ki [12]: > 3.16 µM (inactive) | Ki [13]: > 10 µM (inactive) | Ki [14]: > 7.94 µM (inactive) | Ki [15]: > 2 µM (inactive) | Ki [16]: > 6.31 µM (inactive) | Ki [17]: > 7.94 µM (inactive) | Ki (Focal adhesion kinase 1): > 39.8 µM (inactive) | Ki (Aurora kinase B): 3.98 µM (active) | Ki [18]: > 6.31 µM (inactive) | Ki [19]: 20 µM (active) | Ki [20]: 0.0398 µM (active) | Ki [21]: 6.31 µM (active)
